Experiments:
Type in all cases: cell-based
E. coli DH5α = test: Antibacterial activity: MIC and growth curve against E. coli DH5α in 96-well plate; settings: minimal inhibitory concentration against E. coli DH5α; 96-well plate, 5×10^5 CFU/mL, 37° C., judged after 8 h
Method in brief: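 Log-phase DH5α (OD600 about 0.5, 37° C, 185 rpm in LB) was pelleted, resuspended in fresh LB and seeded at 5×10^5 CFU/mL with recombinant protein at 50, 25 and 12.5 μg/mL (two-fold series), in triplicate. Plates were shaken at 175 rpm, 37° C, and OD600 was read every 30 min. MIC was the lowest concentration with no growth.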

E. coli BL21 = test: MIC against Gram-negative bacteria: E. coli BL21; settings: 5×10^5 CFU/mL
Method in brief: (§1)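 MIC = lowest concentration of recombinant protein showing no growth. Test proteins: purified human-derived EGF domain proteins, two-fold dilution series, three wells per concentration; inoculum 5×10^5 CFU/mL in LB; incubation 37° C with shaking at 175 rpm.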

Pseudomonas aeruginosa = test: MIC against Gram-negative bacteria: Pseudomonas aeruginosa; settings: 5×10^5 CFU/mL
Method in brief: as §1

Klebsiella pneumonia = test: MIC against Gram-negative bacteria: Klebsiella pneumonia; settings: 5×10^5 CFU/mL
Method in brief: as §1

Enterobacter cloacae = test: MIC against Gram-negative bacteria: Enterobacter cloacae; settings: 5×10^5 CFU/mL
Method in brief: as §1

Aeromonas hydrophila = test: MIC against Gram-negative bacteria: Aeromonas hydrophila; settings: 5×10^5 CFU/mL
Method in brief: as §1

Citrobacter diversus = test: MIC against Gram-negative bacteria: Citrobacter diversus; settings: 5×10^5 CFU/mL
Method in brief: as §1

Moraxella catarrhalis = test: MIC against Gram-negative bacteria: Moraxella catarrhalis; settings: 5×10^5 CFU/mL
Method in brief: as §1

Proteus mirabilis = test: MIC against Gram-negative bacteria: Proteus mirabilis; settings: 5×10^5 CFU/mL
Method in brief: as §1

Proteus vulgaris = test: MIC against Gram-negative bacteria: Proteus vulgaris; settings: 5×10^5 CFU/mL
Method in brief: as §1

Serratia marcescens = test: MIC against Gram-negative bacteria: Serratia marcescens; settings: 5×10^5 CFU/mL
Method in brief: as §1

[1] = E. coli BL21, 10 h cultivation at 37° C.
[2] = E. coli BL21, 96-well plate, 37° C., 10 h
[3] = Pseudomonas aeruginosa, 96-well plate, 37° C., 10 h
[4] = Klebsiella pneumonia, 96-well plate, 37° C., 10 h
[5] = Enterobacter cloacae, 96-well plate, 37° C., 10 h
[6] = Aeromonas hydrophila, 96-well plate, 37° C., 10 h
[7] = Citrobacter diversus, 96-well plate, 37° C., 10 h
[8] = Moraxella catarrhalis, 96-well plate, 37° C., 10 h
[9] = Proteus mirabilis, 96-well plate, 37° C., 10 h
[10] = Proteus vulgaris, 96-well plate, 37° C., 10 h
[11] = Serratia marcescens, 96-well plate, 37° C., 10 h
[12] = P. aeruginosa, 10 h cultivation at 37° C.
[13] = K. pneumonia, 10 h cultivation at 37° C.
[14] = E. cloacae, 10 h cultivation at 37° C.
[15] = A. hydrophila, 10 h cultivation at 37° C.
[16] = C. diversus, 10 h cultivation at 37° C.
[17] = M. catarrhalis, 10 h cultivation at 37° C.
[18] = P. mirabilis, 10 h cultivation at 37° C.
[19] = P. vulgaris, 10 h cultivation at 37° C.
[20] = S. marcescens, 10 h cultivation at 37° C.

## PRT1384 (STRTCPRDCRGRGRCEDGECICDTGYSGDDC; listed as Homo sapiens)
E. coli DH5α
  MIC: 25 µg/mL
E. coli BL21; [1]
  MIC against E. coli BL21: 12.5 µg/mL
Pseudomonas aeruginosa; Pseudomonas aeruginosa, 10 h cultivation at 37° C.
  MIC against P. aeruginosa: 25 µg/mL
Klebsiella pneumonia; Klebsiella pneumonia, 10 h cultivation at 37° C.
  MIC against K. pneumonia: 50 µg/mL
Enterobacter cloacae; Enterobacter cloacae, 10 h cultivation at 37° C.
  MIC against E. cloacae: 25 µg/mL
Aeromonas hydrophila; Aeromonas hydrophila, 10 h cultivation at 37° C.
  MIC against A. hydrophila: 25 µg/mL
Citrobacter diversus; Citrobacter diversus, 10 h cultivation at 37° C.
  MIC against C. diversus: 25 µg/mL
Moraxella catarrhalis; Moraxella catarrhalis, 10 h cultivation at 37° C.
  MIC against M. catarrhalis: 12.5 µg/mL
Proteus mirabilis; Proteus mirabilis, 10 h cultivation at 37° C.
  MIC against P. mirabilis: 25 µg/mL
Proteus vulgaris; Proteus vulgaris, 10 h cultivation at 37° C.
  MIC against P. vulgaris: 50 µg/mL
Serratia marcescens; Serratia marcescens, 10 h cultivation at 37° C.
  MIC against S. marcescens: 25 µg/mL

## PRT1260 (DINECLVNNGGCDHFCRNTVGSFECGCRKGYKLLTDERTCQ; listed as Homo sapiens)
E. coli DH5α
  MIC: 25 µg/mL
E. coli BL21; [2]
  MIC against E. coli BL21: 50 µg/mL
Pseudomonas aeruginosa; [3]
  MIC against P. aeruginosa: 25 µg/mL
Klebsiella pneumonia; [4]
  MIC against K. pneumonia: 12.5 µg/mL
Enterobacter cloacae; [5]
  MIC against E. cloacae: 25 µg/mL
Aeromonas hydrophila; [6]
  MIC against A. hydrophila: 50 µg/mL
Citrobacter diversus; [7]
  MIC against C. diversus: 12.5 µg/mL
Moraxella catarrhalis; [8]
  MIC against M. catarrhalis: 50 µg/mL
Proteus mirabilis; [9]
  MIC against P. mirabilis: 12.5 µg/mL
Proteus vulgaris; [10]
  MIC against P. vulgaris: 50 µg/mL
Serratia marcescens; [11]
  MIC against S. marcescens: 25 µg/mL

## PRT130 (ITDRCLPSYCEHGGECSQSWDTFSCDCLGTGYTGETCH; listed as Homo sapiens)
E. coli DH5α
  MIC: 12.5 µg/mL
E. coli BL21; [2]
  MIC (μg/mL) E. coli BL21: 25 µg/mL
Pseudomonas aeruginosa; [3]
  MIC (μg/mL) P. aeruginosa: 12.5 µg/mL
Klebsiella pneumonia; [4]
  MIC (μg/mL) K. pneumonia: 25 µg/mL
Enterobacter cloacae; [5]
  MIC (μg/mL) E. cloacae: 12.5 µg/mL
Aeromonas hydrophila; [6]
  MIC (μg/mL) A. hydrophila: 25 µg/mL
Citrobacter diversus; [7]
  MIC (μg/mL) C. diversus: 50 µg/mL
Moraxella catarrhalis; [8]
  MIC (μg/mL) M. catarrhalis: 25 µg/mL
Proteus mirabilis; [9]
  MIC (μg/mL) P. mirabilis: 12.5 µg/mL
Proteus vulgaris; [10]
  MIC (μg/mL) P. vulgaris: 50 µg/mL
Serratia marcescens; [11]
  MIC (μg/mL) S. marcescens: 12.5 µg/mL

## PRT717 (DLNECLVFGTCSHQCINVEGSYKCVCDQNFQERNNTCI; listed as Homo sapiens)
E. coli DH5α
  MIC: 50 µg/mL
E. coli BL21; 96-well plate, 37° C., 10 h
  MIC E. coli BL21: 12.5 µg/mL
Pseudomonas aeruginosa; 96-well plate, 37° C., 10 h
  MIC P. aeruginosa: 50 µg/mL
Klebsiella pneumonia; 96-well plate, 37° C., 10 h
  MIC K. pneumonia: 12.5 µg/mL
Enterobacter cloacae; 96-well plate, 37° C., 10 h
  MIC E. cloacae: 50 µg/mL
Aeromonas hydrophila; 96-well plate, 37° C., 10 h
  MIC A. hydrophila: 12.5 µg/mL
Citrobacter diversus; 96-well plate, 37° C., 10 h
  MIC C. diversus: 25 µg/mL
Moraxella catarrhalis; 96-well plate, 37° C., 10 h
  MIC M. catarrhalis: 50 µg/mL
Proteus mirabilis; 96-well plate, 37° C., 10 h
  MIC P. mirabilis: 25 µg/mL
Proteus vulgaris; 96-well plate, 37° C., 10 h
  MIC P. vulgaris: 12.5 µg/mL
Serratia marcescens; 96-well plate, 37° C., 10 h
  MIC S. marcescens: 50 µg/mL

## PRT453 (DINECEQFGTCPQHCRNTKGSYECVCADGFT; listed as Homo sapiens)
E. coli DH5α
  MIC: 25 µg/mL
E. coli BL21; 96-well plate, 37° C., 10 h
  MIC against E. coli BL21: 12.5 µg/mL
Pseudomonas aeruginosa; 96-well plate, 37° C., 10 h
  MIC against P. aeruginosa: 25 µg/mL
Klebsiella pneumonia; 96-well plate, 37° C., 10 h
  MIC against K. pneumonia: 50 µg/mL
Enterobacter cloacae; 96-well plate, 37° C., 10 h
  MIC against E. cloacae: 25 µg/mL
Aeromonas hydrophila; 96-well plate, 37° C., 10 h
  MIC against A. hydrophila: 12.5 µg/mL
Citrobacter diversus; 96-well plate, 37° C., 10 h
  MIC against C. diversus: 25 µg/mL
Moraxella catarrhalis; 96-well plate, 37° C., 10 h
  MIC against M. catarrhalis: 50 µg/mL
Proteus mirabilis; 96-well plate, 37° C., 10 h
  MIC against P. mirabilis: 25 µg/mL
Proteus vulgaris; 96-well plate, 37° C., 10 h
  MIC against P. vulgaris: 12.5 µg/mL
Serratia marcescens; 96-well plate, 37° C., 10 h
  MIC against S. marcescens: 25 µg/mL

## PRT185 (ELSECDSNPCRNGGSCKDQEDGYHCLCPPGYYGLHCE; listed as Homo sapiens)
E. coli DH5α
  MIC: 50 µg/mL
E. coli BL21; [1]
  MIC (μg/mL) E. coli BL21: 25 µg/mL
Pseudomonas aeruginosa; [12]
  MIC (μg/mL) P. aeruginosa: 12.5 µg/mL
Klebsiella pneumonia; [13]
  MIC (μg/mL) K. pneumonia: 25 µg/mL
Enterobacter cloacae; [14]
  MIC (μg/mL) E. cloacae: 50 µg/mL
Aeromonas hydrophila; [15]
  MIC (μg/mL) A. hydrophila: 25 µg/mL
Citrobacter diversus; [16]
  MIC (μg/mL) C. diversus: 12.5 µg/mL
Moraxella catarrhalis; [17]
  MIC (μg/mL) M. catarrhalis: 50 µg/mL
Proteus mirabilis; [18]
  MIC (μg/mL) P. mirabilis: 12.5 µg/mL
Proteus vulgaris; [19]
  MIC (μg/mL) P. vulgaris: 12.5 µg/mL
Serratia marcescens; [20]
  MIC (μg/mL) S. marcescens: 50 µg/mL

## PRT180 (DLDDCAGRACANGGTCVEGGGAHRCSCALGFGGRDCR; listed as Homo sapiens)
E. coli DH5α
  MIC: 12.5 µg/mL
E. coli BL21; [1]
  MIC (μg/mL) E. coli BL21: 12.5 µg/mL
Pseudomonas aeruginosa; [12]
  MIC (μg/mL) P. aeruginosa: 12.5 µg/mL
Klebsiella pneumonia; [13]
  MIC (μg/mL) K. pneumonia: 12.5 µg/mL
Enterobacter cloacae; [14]
  MIC (μg/mL) E. cloacae: 50 µg/mL
Aeromonas hydrophila; [15]
  MIC (μg/mL) A. hydrophila: 25 µg/mL
Citrobacter diversus; [16]
  MIC (μg/mL) C. diversus: 12.5 µg/mL
Moraxella catarrhalis; [17]
  MIC (μg/mL) M. catarrhalis: 25 µg/mL
Proteus mirabilis; [18]
  MIC (μg/mL) P. mirabilis: 50 µg/mL
Proteus vulgaris; [19]
  MIC (μg/mL) P. vulgaris: 25 µg/mL
Serratia marcescens; [20]
  MIC (μg/mL) S. marcescens: 12.5 µg/mL

## PRT1243 (FGESCEQQCPHCRHGEACEPDTGHCQRCDPGWLGPRCE; listed as Homo sapiens)
E. coli DH5α
  MIC: 12.5 µg/mL
E. coli BL21; [2]
  MIC against E. coli BL21: 50 µg/mL
Pseudomonas aeruginosa; [3]
  MIC against P. aeruginosa: 12.5 µg/mL
Klebsiella pneumonia; [4]
  MIC against K. pneumonia: 50 µg/mL
Enterobacter cloacae; [5]
  MIC against E. cloacae: 12.5 µg/mL
Aeromonas hydrophila; [6]
  MIC against A. hydrophila: 50 µg/mL
Citrobacter diversus; [7]
  MIC against C. diversus: 12.5 µg/mL
Moraxella catarrhalis; [8]
  MIC against M. catarrhalis: 25 µg/mL
Proteus mirabilis; [9]
  MIC against P. mirabilis: 50 µg/mL
Proteus vulgaris; [10]
  MIC against P. vulgaris: 25 µg/mL
Serratia marcescens; [11]
  MIC against S. marcescens: 12.5 µg/mL

## PRT247 (GAAICQPPCRNGGSCVQPGRCRCPAGWRGDTCQ; listed as Homo sapiens)
E. coli DH5α
  MIC: 12.5 µg/mL
E. coli BL21; [1]
  MIC (μg/mL) E. coli BL21: 12.5 µg/mL
Pseudomonas aeruginosa; [12]
  MIC (μg/mL) P. aeruginosa: 12.5 µg/mL
Klebsiella pneumonia; [13]
  MIC (μg/mL) K. pneumonia: 12.5 µg/mL
Enterobacter cloacae; [14]
  MIC (μg/mL) E. cloacae: 25 µg/mL
Aeromonas hydrophila; [15]
  MIC (μg/mL) A. hydrophila: 12.5 µg/mL
Citrobacter diversus; [16]
  MIC (μg/mL) C. diversus: 25 µg/mL
Moraxella catarrhalis; [17]
  MIC (μg/mL) M. catarrhalis: 100 µg/mL
Proteus mirabilis; [18]
  MIC (μg/mL) P. mirabilis: 25 µg/mL
Proteus vulgaris; [19]
  MIC (μg/mL) P. vulgaris: 12.5 µg/mL
Serratia marcescens; [20]
  MIC (μg/mL) S. marcescens: 25 µg/mL

## PRT64 (PCSSSPCRGGATCALGPHGKNYTCRCPQGYQLDSSQLDCV; listed as Homo sapiens)
E. coli DH5α
  MIC: 12.5 µg/mL
E. coli BL21; [2]
  MIC (μg/mL) E. coli BL21: 12.5 µg/mL
Pseudomonas aeruginosa; [3]
  MIC (μg/mL) P. aeruginosa: 50 µg/mL
Klebsiella pneumonia; [4]
  MIC (μg/mL) K. pneumonia: 25 µg/mL
Enterobacter cloacae; [5]
  MIC (μg/mL) E. cloacae: 12.5 µg/mL
Aeromonas hydrophila; [6]
  MIC (μg/mL) A. hydrophila: 25 µg/mL
Citrobacter diversus; [7]
  MIC (μg/mL) C. diversus: 50 µg/mL
Moraxella catarrhalis; [8]
  MIC (μg/mL) M. catarrhalis: 25 µg/mL
Proteus mirabilis; [9]
  MIC (μg/mL) P. mirabilis: 25 µg/mL
Proteus vulgaris; [10]
  MIC (μg/mL) P. vulgaris: 25 µg/mL
Serratia marcescens; [11]
  MIC (μg/mL) S. marcescens: 25 µg/mL

— patent US9833497B2, “Human originated EGF domain proteins and use of the same” (CHENGDU SOURCEBIO LIMITED-LIABILITY COMPANY, priority 2013, dated 2017)
